Here are results for 22 molecules from patent US9540362B2, “Sphingosine-1-phosphate receptor agonists, methods of preparing the same, and pharmaceutical compositions containing the same as an active agent” (LG LIFE SCIENCES LTD., priority 2013, dated 2017).

Broadly, the EC50 is the concentration at which the effect is half-maximal.

Experiment [1] addresses human sphingosine-1-phosphate 1 receptor (S1P1 receptor) (Homo sapiens, UniProt P21453). In words: Ca2+ inducing ability using CHO cells overexpressing human S1P1 receptor (Calcium 5 assay kit). In kind it is cell-based. Conditions: CHO cells overexpressing human S1P1, calcium RFU; S1P 1 μM = 100%. The text has this: Evaluation of Ca^2+ inducing ability of test compound using a cell line expressing human sphingosine-1-phosphate
CHO (Chinese hamster ovary) cells which overexpress human sphingosine-1-phosphate 1 receptor (S1P1 receptor) that react with sphingosine-1-phosphate (S1P) are used for a functional test method wherein an increase of calcium indicates a therapeutic efficacy of an agonist compound.
To prepare CHO cells which overexpress human S1P1˜S1P5, human clones for each subtype having HA at the N terminal residue (S1P1: EDG010TN00, S1P2: EDG020TN00, S1P3: EDG030TN00, S1P4: EDG060TN00, S1P5: EDG080TN00) were purchased from the Missouri S&T cDNA Resource Center and co-transfected with G-protein alpha subunit (G-alpha-16) into CHO-K1 cells.
A calcium measurement kit (Calcium 5 assay kit, Molecular Devices) was used to select an agonist compound. The principle of calcium measurement is that calcium-sensitive dyes are applied to cells, they enter into the cytoplasm of the cells during incubation, and when a ligand binds to a certain receptor to release calcium into the cytoplasm, the dyes bind to said calcium to induce fluorescence which is measured. This test method can sensitively measure only the intracellular calcium concentration change because any change that may occur outside the cells is masked by a masking dye.
The experimental procedure was as follows. One day before calcium measurement, CHO cells overexpressing hS1P1˜hS1P5 were dispensed into a 96-well plate (bottom clear black well) in 3×10^4 cells per well and cultured at 37° C. under 5% carbon dioxide condition for one day. 100 μl of calcium dyes mixed with Assay Buffer (1×HBSS, 20 mM HEPES, 2.5 mM probenecid, pH 7.4) were dispensed into culture solution in well and cultured at 37° C. for one hour. Test compounds were dissolved in 100% DMSO to prepare 1 μl solution per each concentration, and each solution was mixed with 199 μl Assay Buffer such that the concentrations were 50, 5, 0.5, 0.05, 0.005 and 0.0005 μM. The plate cultured with the calcium dyes was put into FlaxstationII (Molecular Devices), and the prepared test compounds (the final concentrations of the test compounds: 10, 1, 0.1, 0.01, 0.001 and 0.0001 μM) were programmed to be automatically inoculated in 50 μl per each well. For a total of 90 seconds, RFU (relative fluorescence unit) values were measured. The value of Reference (S1P substance 1 μM) deducting the blank value was set as 100%, and EC50 values of the test compounds were calculated by prism.

Another experiment relates to lymphocytes in blood. In words: Rat peripheral blood lymphocyte decrease. Type of experiment: in vivo. The note with it: male SD rat, 6 hours after administration. On the procedure: Evaluation of Rat Peripheral Blood Lymphocyte Decrease
Lymphocyte decrease in blood by S1P1 agonist was evaluated using a male SD rat. After adapting a rat weighing about 250 g to a breeding facility for one week, a test compound was administered to it once. At 3 hours, 6 hours, 24 hours and 48 hours after administration, blood was taken from a tail caudal vein, and about 200 μl of the blood was put into an EDTA tube while preventing it from clotting, followed by measurement of the number of lymphocytes in blood. The number of lymphocytes was analyzed by a hematological examination device, Hemoanalyzer. The doses of the test compounds were 3 mg/kg for Example 52, 94, 108, 117, 142, 145, 146, 148 and 149 compounds, and 1 mg/kg for Example 150, 151, 153, 154, 155, 158, 159 and 161 compounds.

SMILES strings stand for the structures. Counter-ions that a name gives are not always drawn.

human sphingosine-1-phosphate 1 receptor (S1P1 receptor), sequence (P21453 whole entry): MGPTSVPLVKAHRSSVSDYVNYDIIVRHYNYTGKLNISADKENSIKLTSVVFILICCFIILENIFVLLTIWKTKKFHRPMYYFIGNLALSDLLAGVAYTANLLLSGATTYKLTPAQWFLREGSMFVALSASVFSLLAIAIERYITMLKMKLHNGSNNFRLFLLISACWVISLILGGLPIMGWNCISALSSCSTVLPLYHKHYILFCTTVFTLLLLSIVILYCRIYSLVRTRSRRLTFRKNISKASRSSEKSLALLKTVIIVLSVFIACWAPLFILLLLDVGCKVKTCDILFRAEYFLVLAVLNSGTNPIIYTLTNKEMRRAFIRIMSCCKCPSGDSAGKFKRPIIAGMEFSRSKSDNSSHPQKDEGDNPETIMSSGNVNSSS

With `Cc1cc(CCC(=O)O)ccc1-c1noc(-c2ccc3c(ccn3C(C)C)c2)n1` [Example 1, 3-{4-[5-(1-isopropyl-1H-indol-5-yl)-[1,2,4]oxadiazol-3-yl]-3-methyl-phenyl}-propanoic acid], the EC50 in experiment [1] stood at 5 nM.
`CC1=C(CN2CCC(C(=O)O)CC2)CCc2cc(OCc3ccc4c(c3)c(Cl)nn4C(C)C)ccc21` [Example 148, 1-[6-(3-chloro-1-isopropyl-1H-indazol-5-ylmethoxy)-1-methyl-3,4-dihydro-naphthalen-2-ylmethyl]-piperidine-4-carboxylic acid]: the concentration for a half-maximal effect (EC50) in experiment [1] stood at 19 nM. For the same molecule, the “Lymphocyte count (degree of decrease in lymphocyte number)” value in the experiment on lymphocytes in blood (administered once, 3 mg/kg) is −81%.
Regarding `CC(C)n1nc(Cl)c2cc(COc3ccc4c(c3)CCC(CN3CCC(C(=O)O)CC3)=C4Cl)ccc21` [Example 153, 1-[1-chloro-6-(3-chloro-1-isopropyl-1H-indazol-5-ylmethoxy)-3,4-dihydro-naphthalen-2-ylmethyl]-piperidine-4-carboxylic acid], in experiment [1], the EC50 stood at 11 nM. For the same molecule, the “Lymphocyte count (degree of decrease in lymphocyte number)” value in the experiment with lymphocytes in blood (administered once, 1 mg/kg) is on record as −80%.
With `Cc1cc(CN2CC(C(=O)O)C2)ccc1-c1noc(-c2ccc3c(ccn3C(C)C)c2)n1` [Example 5, 1-{4-[5-(1-isopropyl-1H-indol-5-yl)-[1,2,4]oxadiazol-3-yl]-3-methyl-benzyl}-azetidine-3-carboxylic acid], the EC50 in experiment [1] came out at 14 nM.
Take `CC1=C(CN2CCCC(C(=O)O)CC2)CCc2cc(OCc3ccc4c(c3)c(Cl)nn4C(C)C)ccc21` (stereo not shown) [Example 149, 1-[6-(3-chloro-1-isopropyl-1H-indazol-5-ylmethoxy)-1-methyl-3,4-dihydro-naphthalen-2-ylmethyl]-azepane-4-carboxylic acid]: the EC50 in experiment [1] worked out at 19 nM. Further, the “Lymphocyte count (degree of decrease in lymphocyte number)” value in the experiment on lymphocytes in blood (administered once, 3 mg/kg) is −80%.
For `CC(C)n1nc(Cl)c2cc(COc3ccc4c(c3)CCC(CN3CCC(C(=O)O)CC3)=C4Cl)cnc21` [Example 159, 1-[1-chloro-6-(3-chloro-1-isopropyl-1H-pyrazolo[3,4-b]pyridin-5-ylmethoxy)-3,4-dihydro-naphthalen-2-ylmethyl]-piperidine-4-carboxylic acid], in experiment [1], the EC50 was 12 nM. The “Lymphocyte count (degree of decrease in lymphocyte number)” value with lymphocytes in blood (administered once, 1 mg/kg) was −80%.
Take `Cc1cc(CCC(=O)O)ccc1-c1noc(-c2ccc3c(c2)c(Cl)cn3C(C)C)n1` [Example 52, 3-{4-[5-(3-chloro-1-isopropyl-1H-indol-5-yl)-[1,2,4]oxadiazol-3-yl]-3-methyl-phenyl}-propanoic acid]: the EC50 in experiment [1] is 10 nM. Further, the “Lymphocyte count (degree of decrease in lymphocyte number)” value in the experiment on lymphocytes in blood (administered once, 3 mg/kg) is given as −80%.
Turning to `Cc1c(-c2noc(-c3ccc4c(c3)c(C)nn4C(C)C)n2)ccc2c1CCN(CC(=O)O)C2` [Example 117, {6-[5-(1-isopropyl-3-methyl-1H-indazol-5-yl)-[1,2,4]oxadiazol-3-yl]-5-methyl-3,4-dihydro-1H-isoquinolin-2-yl}-acetic acid, trifluoroacetate], the EC50 in experiment [1] worked out at 3 nM. Besides, the “Lymphocyte count (degree of decrease in lymphocyte number)” value in the experiment on lymphocytes in blood (administered once, 3 mg/kg) was −80%.
As for `Cc1c(-c2noc(-c3ccc4c(c3)c(Cl)cn4C(C)C)n2)ccc2c1CCN(CC(=O)O)C2` [Example 58, {6-[5-(3-chloro-1-isopropyl-1H-indol-5-yl)-[1,2,4]oxadiazol-3-yl]-5-methyl-3,4-dihydro-1H-isoquinolin-2-yl}-acetic acid, hydrochloride], the EC50 in experiment [1] worked out at 20 nM.
As for `Cc1c(CN2CC(C(=O)O)C2)cccc1-c1noc(-c2ccc3c(ccn3C(C)C)c2)n1` [Example 26, 1-{3-[5-(1-isopropyl-1H-indol-5-yl)-[1,2,4]oxadiazol-3-yl]-2-methyl-benzyl}-azetidine-3-carboxylic acid], in experiment [1], the EC50 was found to be 2 nM.
`CC(C)n1nc(Cl)c2cc(COc3ccc4cc(CN5CC(C(=O)O)C5)ccc4c3)ccc21` [Example 142, 1-[6-(3-chloro-1-isopropyl-1H-indazol-5-ylmethoxy)-naphthalen-2-ylmethyl]-azetidine-3-carboxylic acid]: the EC50 in experiment [1] came out at 7 nM. Besides, the “Lymphocyte count (degree of decrease in lymphocyte number)” value with lymphocytes in blood (administered once, 3 mg/kg) is listed as −80%.
As to `Cc1cc(CN2CC(C(=O)O)C2)ccc1-c1noc(-c2ccc3c(c2)c(C#N)cn3C(C)C)n1` [Example 4, 1-{4-[5-(3-cyano-1-isopropyl-1H-indol-5-yl)-[1,2,4]oxadiazol-3-yl]-3-methyl-benzyl}-azetidine-3-carboxylic acid], the EC50 in experiment [1] was 23 nM.
As for `CC(C)n1nc(Cl)c2cc(COc3ccc4c(c3)CCC(CN3CCC(F)(C(=O)O)CC3)=C4Cl)ccc21` [Example 154, 1-[1-chloro-6-(3-chloro-1-isopropyl-1H-indazol-5-ylmethoxy)-3,4-dihydro-naphthalen-2-ylmethyl]-4-fluoro-piperidine-4-carboxylic acid], in experiment [1], the EC50 was 17 nM. Moreover, the “Lymphocyte count (degree of decrease in lymphocyte number)” value with lymphocytes in blood (administered once, 1 mg/kg) was −65%.
Consider `CC(C)n1nc(Cl)c2cc(COc3ccc4c(c3)CCC(CN3CCC(C(=O)O)C3)=C4Cl)ccc21` (stereo not shown) [Example 150, 1-[1-chloro-6-(3-chloro-1-isopropyl-1H-indazol-5-ylmethoxy)-3,4-dihydro-naphthalen-2-ylmethyl]-pyrrolidine-3-carboxylic acid], for which the EC50 in experiment [1] is 8 nM. The “Lymphocyte count (degree of decrease in lymphocyte number)” value in the experiment on lymphocytes in blood (administered once, 1 mg/kg) is listed as −82%.
As to `CCCCCCCCc1ccc(CCC(N)(CO)CO)cc1` [FTY-720, Fingolimod, reference compound], the “Lymphocyte count (degree of decrease in lymphocyte number)” value in the experiment on lymphocytes in blood (dose of the reference not stated) is listed as −80%.
Consider `CC(C)n1ccc2cc(-c3nc(-c4ccc(CN5CC(C(=O)O)C5)cc4)no3)ccc21` [Example 2, 1-{4-[5-(1-isopropyl-1H-indol-5-yl)-[1,2,4]oxadiazol-3-yl]-benzyl}-azetidine-3-carboxylic acid], for which the EC50 in experiment [1] turned out to be 25 nM.
On to `CC(C)n1ccc2cc(-c3nc(-c4cccc5c4CCCC5NS(N)(=O)=O)no3)ccc21` (stereo not shown) [Example 38, N-{5-[5-(1-isopropyl-1H-indol-5-yl)-[1,2,4]oxadiazol-3-yl]-1,2,3,4-tetrahydro-naphthalen-1-yl}-sulfamide], for which, in experiment [1], the EC50 worked out at 50 nM.
Regarding `Cc1c(-c2noc(-c3ccc4nn(C(C)C)cc4c3)n2)ccc2c1CCN(CC(=O)O)C2` [Example 97, {6-[5-(2-isopropyl-2H-indazol-5-yl)-[1,2,4]oxadiazol-3-yl]-5-methyl-3,4-dihydro-1H-isoquinolin-2-yl}-acetic acid, trifluoroacetate], the EC50 in experiment [1] was 50 nM.
Turning to `CCC(C)n1nc(Cl)c2cc(COc3ccc4c(c3)CCC(CN3CCC(C(=O)O)CC3)=C4Cl)cnc21` (stereo not shown) [Example 160, 1-[6-(1-sec-butyl-3-chloro-1H-pyrazolo[3,4-b]pyridin-5-ylmethoxy)-1-chloro-3,4-dihydro-naphthalen-2-ylmethyl]-piperidine-4-carboxylic acid], the EC50 in experiment [1] is 19 nM.
Turning to `Cc1cc(CN2CC(C(=O)O)C2)ccc1-c1noc(-c2ccc3c(c2)c(Cl)cn3C(C)C)n1` [Example 3, 1-{4-[5-(3-chloro-1-isopropyl-1H-indol-5-yl)-[1,2,4]oxadiazol-3-yl]-3-methyl-benzyl}-azetidine-3-carboxylic acid], the EC50 in experiment [1] turned out to be 23 nM.
Consider `Cc1c(-c2noc(-c3ccc4c(cnn4C(C)C)c3)n2)ccc2c1CCN(CC(=O)O)C2` [Example 85, {6-[5-(1-isopropyl-1H-indazol-5-yl)-[1,2,4]oxadiazol-3-yl]-5-methyl-3,4-dihydro-1H-isoquinolin-2-yl}-acetic acid, trifluoroacetate], for which the EC50 in experiment [1] turned out to be 10 nM.
Consider `Cc1cc(C(C)CC(=O)O)ccc1-c1noc(-c2ccc3c(c2)c(Cl)nn3C(C)C)n1` (stereo not shown) [Example 129, 3-{4-[5-(3-chloro-1-isopropyl-1H-indazol-5-yl)-[1,2,4]oxadiazol-3-yl]-3-methyl-phenyl}-butyric acid, trifluoroacetate], for which, in experiment [1], the EC50 turned out to be 50 nM.
